Measured values from patent US11464750B2, “Anticancer agent and use thereof” (priority 2017, dated 2022).

Columns and labels:
Assay type in all cases: cell-based, human
[1] = test system: p-GSK-3β (Ser^9); test: Western blotting, p-GSK-3β (Ser9), Panc-1 cells; settings: 3 μM, entire cell
Protocol: (§1) Specifically, first, JeKo-1 cells were cultured for 0 (control), 12, 24, and 48 hours in the presence of 0.5 μM of 3EZ,20Ac-ingenol. In addition, Panc-1 cells were cultured for 0 (control), 12, 24, and 48 hours in the presence of 3 μM of 3EZ,20Ac-ingenol.
Subsequently, abundances of GSK-3β and p-GSK-3β in the respective cells were analyzed by Western blotting using an anti-GSK-3β antibody (Cell Signaling Technology) and an anti-p-GSK-3β (Ser^9) antibody (Cell Signaling Technology). Furthermore, as a loading control, actin protein was detected using an anti-actin antibody (Sigma).

[2] = test system: phosphorylated Akt (Ser^473); test: Western blotting, p-Akt (Ser473), TKG0377 cells; settings: 0.5 μM
Protocol: The effect of 3EZ,20Ac-ingenol treatment on a PI3K/Akt signaling pathway was examined. Specifically, BALL-1 cells, TKG0210 cells, and TKG0377 cells were cultured for 48 hours in the presence of 3EZ,20Ac-ingenol at a final concentration of 0.5 μM, and by Western blotting using an anti-p-Akt (Ser^473) antibody (Cell Signaling Technology), phosphorylation of the 473th serine residue of an Akt protein in respective fractions of the entire cell, a nucleus, and a cytoplasm was analyzed. In addition, cells cultured in the absence of 3EZ,20Ac-ingenol were used as controls.
BALL-1 cells, TKG0210 cells, and TKG0377 cells were cultured for 24 and 48 hours in the presence of 3EZ,20Ac-ingenol at a final concentration of 0.5 μM, and abundances of p-Akt in the nuclear fraction and the cytoplasm fraction were analyzed by Western blotting. In addition, respective cells cultured in the absence of 3FZ,20Ac-ingenol were used as controls.

[3] = test system: BALL-1 cells; test: Cell cycle analysis by flow cytometry; settings: 0.5 μM
Protocol: Specifically, BALL-1 cells were treated with 3EZ,20Ac-ingenol at a final concentration of 0.5 μM for 6, 12, 24, and 48 hours, and then a phase of a cell cycle was analyzed using flow cytometry. In addition, cells that were not treated with 3EZ,20Ac-ingenol were used as controls.

[4] = test system: cyclin D1; test: Western blotting, cyclin D1, Panc-1 cells; settings: 3 μM
Protocol: as §1
Subsequently, abundances of cyclin D1 in entire cell fractions, nuclear fractions, and cytoplasm fractions of the respective cells were analyzed by Western blotting.

[5] = test system: phosphorylated H2AX (γH2AX); test: Western blotting, phosphorylated H2AX, Panc-1 cells; settings: 3 μM, 12, 24, 48 hours
Protocol: Specifically, JeKo-1 cells were cultured for 0 (control), 12, 24 and 48 hours in the presence of 0.5 μM of 3EZ,20Ac-ingenol. In addition, Panc-1 cells were cultured for 0 (control), 12, 24, and 48 hours in the presence of 3 μM of 3EZ,20Ac-ingenol.
Subsequently, phosphorylation of H2AX in the respective cells was detected using an anti-phosphorylated-H2AX antibody (Millipore). In addition, p21 protein was detected using an anti-p21 antibody (Cell Signaling Technology). Furthermore, as a loading control, actin protein was detected using an anti-actin antibody (Sigma).

[6] = test system: BALL-1 cells; test: Cell Death Detection ELISA (histone-binding DNA fragmentation), BALL-1; settings: 0.5 μM, 72 hours
Protocol: The induction of apoptosis by 3EZ,20Ac-ingenol treatment was examined by detecting histone-binding DNA fragmentation in the cytoplasm using a Cell Death Detection ELISA kit (Roche Applied Science).
Specifically, BALL-1 cells, TKG0210 cells, and TKG0377 cells were inserted into tubes at 5×10^4 cells/well/200 μL, and incubated for 6, 12, 24, 48, and 72 hours in the presence of 3EZ,20Ac-ingenol at a final concentration of 0.5 μM. Subsequently, the respective cells were lysed in a lysis buffer. Subsequently, the supernatant of cell debris of the respective cells was collected and transferred to an ELISA plate, and an absorbance at a wavelength of 405 nm was measured to measure the induction of apoptosis.

[7] = test system: phosphorylated p53 (p-p53) protein; test: Western blotting, phosphorylated p53, Panc-1 cells; settings: 3 μM
Protocol: Specifically, JeKo-1 cells were cultured for 0 (control), 12, 24, and 48 hours in the presence of 0.5 μM of 3EZ,20Ac-ingenol. In addition, Panc-1 cells were cultured for 0 (control), 12, 24, and 48 hours in the presence of 3 μM of 3EZ,20Ac-ingenol.
Subsequently, ATR protein, p53 protein, and phosphorylated p53 (hereinafter also referred to as “p-p53”) protein in the respective cells were respectively detected using an anti-ATR antibody (Cell Signaling Technology), an anti-p53 antibody (Santa Cruz), and an anti-p-p53 antibody (Cell Signaling Technology). Furthermore, as a loading control, actin protein was detected using an anti-actin antibody (Sigma).

[8] = test system: PTEN; test: Western blotting, PTEN, BALL-1 cells; settings: 0.5 μM
Protocol: The effect of 3EZ,20Ac-ingenol treatment on PTEN, p-PTEN, and p-Akt of BALL-1 cells was examined. First, BALL-1 cells were cultured for 3, 6, 12, 24, and 48 hours in the presence of 3EZ,20Ac-ingenol at a final concentration of 0.5 μM, and by Western blotting using an anti-PTEN antibody (Santa Cruz), an anti-p-PTEN (Ser^380/Thr^382/383) antibody (Santa Cruz), and an anti-p-Akt (Ser^473) antibody (Cell Signaling Technology), abundances of PTEN, p-PTEN, and p-Akt in the entire cell fraction were analyzed. In addition, cells cultured in the absence of 3EZ,20Ac-ingenol were used as controls.
Subsequently, siRNA against PTEN (“ON-TARGET Plus Human PTEN (5728) siRNA-SMARTpool,” GE Dharmacon) was introduced into BALL-1 cells at a final concentration of 50 nM and incubated for 48 hours. Subsequently, a cell medium was replaced with a new medium and cultured for 12, 24, and 48 hours in the presence or absence of 3EZ,20Ac-ingenol at a final concentration of 0.5 μM, and by Western blotting using an anti-PTEN antibody (Santa Cruz) and an anti-p-Akt (Ser^473) antibody (Cell Signaling Technology), abundances of PTEN protein and p-Akt were analyzed.

## CCCCC/C=C\C=C\C(=O)O[C@H]1C(C)=C[C@]23C(=O)[C@@H](C=C(COC(C)=O)[C@@H](O)[C@]12O)[C@H]1[C@@H](C[C@H]3C)C1(C)C [3EZ,20Ac-ingenol, 3-O-(2′E,4′Z-decadienoyl)-20-O-acetylingenol]
[1]
  p-GSK-3β (an inactive type): a decrease in p-GSK-3β (an inactive type) was observed
[2]; 24 and 48 hours, cytoplasm fraction and nuclear fraction
  abundance of p-Akt: no decrease in abundance of p-Akt was observed
[2]; 48 hours, cytoplasm fraction
  abundance of p-Akt: remained almost unchanged
[2]; 48 hours, nuclear fraction
  abundance of p-Akt: increased
[3]; after 6 hours
  proportion of S-phase cells: 68%
[3]; after 12 hours and 24 hours
  proportion of G2/M-phase cells: about 3%
  proportion of S-phase cells: 75%
[3]; after 24 hours
  proportion of G1-phase cells: about 19%
[4]; cytoplasm fraction, 12 to 48 hours
  abundance of cyclin D1: an abundance of cyclin D1 decreased
[4]; entire cell fraction, 12 to 24 hours
  expression level of cyclin D1: temporarily increased
[4]; entire cell fraction, after 24 hours
  expression level of cyclin D1: then decreased thereafter
[4]; nuclear fraction, 12 hours
  expression level of cyclin D1: temporarily increased
[4]; nuclear fraction, after 24 hours
  expression level of cyclin D1: decreased after 24 hours
[5]
  phosphorylation of H2AX: phosphorylation of H2AX was not detected
[6]
  amount of fragmented DNA (apoptosis): noticeably increased the amount of fragmented DNA
[7]; 12 hours after treatment, entire cells
  phosphorylation of p53: phosphorylation of p53 was observed
[7]; nuclear fraction and cytoplasm fraction
  amount of phosphorylated p53 protein: the amount of phosphorylated p53 protein increased
[8]; 3 to 48 hours, entire cell fraction
  abundance of PTEN: an increase in abundance of PTEN
[8]; cells with siRNA against PTEN introduced, 12 hours, further increased 24 and 48 hours
  expression level of PTEN: an increase in expression level of PTEN was observed
